Experimental findings from patent publication US7858644B2, “EP4 receptor antagonists” (Asterand UK Limited, priority 2003, dated 2010) are described below.

A value given as a limit tells only on which side of the number the result lay.

For one assay, the target named is T1, human EP2 receptor (Homo sapiens, UniProt P43116).
T1 construct: expressed in transfected cells
As to the kind of experiment: Binding ability to human EP2 receptor ([3H]PGE2 displacement). To be noted: read-out: pKi EP2 (converted). Here is the method:
(§1) Membranes were prepared from cells stably transfected with human EP receptor cDNA. In brief, cells were cultured to confluency, scraped from culture flasks, and centrifuged (800 g, 8 minutes, 4° C.). Cells were twice washed in ice cold homogenisation buffer containing 10 mMTris-HCl, 1 mM EDTA. 2Na, 250 mM sucrose, 1 mM PMSF, 0.3 mM indomethacin, pH 7.4, homogenised and re-centrifuged as before. The supernatant was stored on ice and pellets re-homogenised and re-spun. Supernatants were pooled and centrifuged at 40000 g, 10 minutes, 4° C. Resultant membrane pellets were stored at −80° C. until use.
(§2) For assay, membranes expressing human EP4, EP3, EP2 or EP1 receptors were incubated in Millipore (MHVBN45) plates containing assay buffer, radiolabelled [^3H]PGE2 and 0.1 to 10 000 nM concentrations of compounds. Incubations were performed at suitable temperatures and for suitable times to allow equilibrium to be reached. Non-specific binding was determined in the presence of 10 uM PGE2. Bound and free radiolabel was separated by vacuum manifold filtration using appropriate wash buffers, and bound radiolabel was determined by scintillation counting. Constituents of each of the buffers are included in table 1 below.
(§3) This approach follows that set out in Kenakin, T. P., Pharmacologic analysis of drug receptor interaction. Raven Press, New York, 2nd edition.

A further assay deals with T2, human EP4 receptor (Homo sapiens, UniProt P35408).
T2 construct: expressed in transfected cells
As to the kind of experiment: Binding ability to human EP4 receptor ([3H]PGE2 displacement). The following applies: read-out: pKi EP4 (converted). Here is the method: as §1
Incubations were performed at suitable temperatures and for suitable times to allow equilibrium to be reached. Non-specific binding was determined in the presence of 10 uM PGE2. Bound and free radiolabel was separated by vacuum manifold filtration using appropriate wash buffers, and bound radiolabel was determined by scintillation counting. Constituents of each of the buffers are included in table 1 below.
as §3

In another assay the target is T3, human EP3 receptor (Homo sapiens, UniProt P43115).
T3 construct: expressed in transfected cells
T3 sequence (P43115 1-390): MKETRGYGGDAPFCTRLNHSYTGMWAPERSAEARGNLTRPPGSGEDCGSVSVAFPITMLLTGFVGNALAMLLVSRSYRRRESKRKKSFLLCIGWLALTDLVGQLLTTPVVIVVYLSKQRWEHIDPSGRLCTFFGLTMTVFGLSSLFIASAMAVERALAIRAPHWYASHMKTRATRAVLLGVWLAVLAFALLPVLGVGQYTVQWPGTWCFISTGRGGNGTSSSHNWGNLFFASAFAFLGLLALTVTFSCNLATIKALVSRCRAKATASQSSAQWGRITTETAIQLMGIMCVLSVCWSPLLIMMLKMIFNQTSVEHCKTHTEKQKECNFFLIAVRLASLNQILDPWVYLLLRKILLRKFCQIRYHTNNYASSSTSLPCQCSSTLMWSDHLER
As to the kind of experiment: Binding ability to human EP3 receptor ([3H]PGE2 displacement). To be noted: membranes from cells stably transfected with human EP receptor cDNA; [3H]PGE2 2.5 nM; Cheng-Prusoff from IC50; read-out: pKi EP3 (converted). Here is the method: as §1, §2, §3

T2 sequence (P35408 whole entry): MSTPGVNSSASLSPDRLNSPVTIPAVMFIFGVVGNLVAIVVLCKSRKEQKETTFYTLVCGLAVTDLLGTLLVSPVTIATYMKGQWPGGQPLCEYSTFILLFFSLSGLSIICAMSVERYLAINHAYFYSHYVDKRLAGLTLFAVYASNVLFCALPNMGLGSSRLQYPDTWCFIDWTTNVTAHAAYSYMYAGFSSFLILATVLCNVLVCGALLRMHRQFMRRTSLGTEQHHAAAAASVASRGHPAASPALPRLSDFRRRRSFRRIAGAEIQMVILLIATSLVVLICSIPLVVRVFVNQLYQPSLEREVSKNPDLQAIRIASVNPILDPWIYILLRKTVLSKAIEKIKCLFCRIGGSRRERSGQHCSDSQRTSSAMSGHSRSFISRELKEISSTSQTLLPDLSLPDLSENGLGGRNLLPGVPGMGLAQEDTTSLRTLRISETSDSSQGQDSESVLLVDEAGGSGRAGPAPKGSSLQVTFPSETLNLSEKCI
T1 sequence (P43116 whole entry): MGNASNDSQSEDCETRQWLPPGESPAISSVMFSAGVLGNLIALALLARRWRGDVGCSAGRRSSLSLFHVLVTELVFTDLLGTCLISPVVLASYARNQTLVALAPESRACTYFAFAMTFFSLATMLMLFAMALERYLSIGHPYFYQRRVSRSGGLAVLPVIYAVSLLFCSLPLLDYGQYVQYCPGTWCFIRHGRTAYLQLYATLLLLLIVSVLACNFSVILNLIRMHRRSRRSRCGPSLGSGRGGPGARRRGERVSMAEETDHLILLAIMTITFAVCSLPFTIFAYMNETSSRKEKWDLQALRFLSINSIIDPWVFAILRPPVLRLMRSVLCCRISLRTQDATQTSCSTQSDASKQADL

On to `COc1ccc(-c2ccc(NC(=O)c3cc(C(=O)NS(=O)(=O)c4ccccc4)oc3C)cc2)cc1` [Compound 25, 5-Benzenesulfonylaminocarbonyl-2-methyl-furan-3-carboxylic acid (4′-methoxy-biphenyl-4-yl)-amide], for which the Ki at human EP2 receptor was more than 10 µM; at human EP4 receptor it was less than 0.316 µM; at human EP3 receptor it was more than 10 µM.
For `Cc1oc(CCC(=O)NS(=O)(=O)c2ccccc2)cc1COc1ccc(-c2ccccc2)cc1` [Compound 38, N-{3-[4-(Biphenyl-4-yloxymethyl)-5-methyl-furan-2-yl]-propionyl}-benzene sulfonamide], the Ki was more than 3.16 µM at human EP2 receptor, less than 1 µM on human EP4 receptor and more than 10 µM on human EP3 receptor.
For `COc1ccc(-c2ccc(OCc3cc(CCC(=O)O)oc3C)cc2)cc1` [Compound 39, 3-[4-(4′-Methoxy-biphenyl-4-yloxymethyl)-5-methyl-furan-2-yl]-propionic acid] the same measures were more than 10 µM, less than 0.1 µM and more than 10 µM.
For `COc1ccc(-c2ccc(OCc3cc(CCC(=O)NS(=O)(=O)c4ccccc4)oc3C)cc2)cc1` [Compound 40, N-{3-[4-(4′-Methoxy-biphenyl-4-yloxymethyl)-5-methyl-furan-2-yl]-propionyl}-benzene sulfonamide], in that order: more than 10 µM, less than 0.1 µM and more than 10 µM.
For `Cc1oc(/C=C/C(=O)O)cc1COc1ccc(-c2ccccc2)cc1` [Compound 42, 3-[4-(Biphenyl-4-yloxymethyl)-5-methyl-furan-2-yl]-acrylic acid], in that order: more than 10 µM, less than 0.1 µM and more than 10 µM.
On to `COc1ccc(-c2ccc(OCc3cc(/C=C/C(=O)O)oc3C)cc2)cc1` [Compound 43, 3-[4-(4′-Methoxy-biphenyl-4-yloxymethyl)-5-methyl-furan-2-yl]-acrylic acid], for which the Ki on human EP2 receptor was more than 10 µM; on human EP4 receptor it was less than 0.1 µM; at human EP3 receptor, more than 10 µM.
As to `Cc1oc(S(=O)(=O)NC(=O)c2ccccc2)cc1COc1ccc(-c2ccccc2)cc1` [Compound 46, 4-(Biphenyl-4-yloxymethyl)-5-methyl-furan-2-sulfonic acid benzoylamide], the results for the Ki at human EP2 receptor, at human EP4 receptor and at human EP3 receptor were more than 10 µM, less than 0.1 µM and more than 10 µM, respectively.
On to `Cc1oc(C(=O)O)cc1COc1ccc2c(c1)oc1ccccc12` [Compound 50, 4-(Dibenzofuran-3-yloxymethyl)-5-methyl-furan-2-carboxylic acid], for which the Ki on human EP2 receptor was more than 3.16 µM; on human EP4 receptor it was less than 3.16 µM; at human EP3 receptor, more than 10 µM.
For `COc1ccc(-c2ccc(OCc3cc(C(=O)O)oc3C)cn2)cc1` [Compound 56, 4-[6-(4-Methoxy-phenyl)-pyridin-3-yloxymethyl]-5-methyl-furan-2-carboxylic acid], in that order: more than 31.6 µM, less than 3.16 µM and more than 10 µM.
`COc1ccc(-c2ccc(OCc3cc(S(=O)(=O)NC(=O)c4c(C)noc4C)oc3C)cc2)cc1` [Compound 69, 4-(4′-Methoxy-biphenyl-4-yloxymethyl)-5-methyl-furan-2-sulphonic acid (3,5-dimethyl-isoxazole-4-carbonyl)-amide]: on human EP4 receptor, the Ki is less than 0.1 µM.
On to `COc1ccccc1-c1ccc(OCc2cc(C(=O)NS(=O)(=O)c3ccccc3)oc2C)cc1` [Compound 127, N-[4-(2′-Methoxy-biphenyl-4-yloxymethyl)-5-methyl-furan-2-carbonyl]-benzenesulphonamide], for which the Ki on human EP2 receptor and at human EP3 receptor was more than 10 µM throughout.
On to `Cc1oc(C(=O)O)cc1COc1ccc(-c2ccc(OC(F)F)cc2)cc1` [Compound 129, 4-(4′-Difluoromethoxy-biphenyl-4-yloxymethyl)-5-methyl-furan-2-carboxylic acid], for which the Ki on human EP2 receptor and at human EP3 receptor was more than 10 µM in each case.
Consider `Cc1oc(C(=O)NS(=O)(=O)c2ccccc2)cc1COc1ccc(-c2ccc(OC(F)F)cc2)cc1` [Compound 130, N-[4-(4′-Difluoromethoxy-biphenyl-4-yloxymethyl)-5-methyl-furan-2-carbonyl]-benzenesulphonamide], for which the Ki on human EP2 receptor was more than 3.16 µM; at human EP3 receptor it was more than 10 µM.
For `Cc1noc(C)c1S(=O)(=O)NC(=O)c1cc(COc2ccc(-c3ccc(OC(F)F)cc3)cc2)c(C)o1` [Compound 131, 3,5-Dimethyl-isoxazole-4-sulphonic acid [4-(4′-difluoromethoxy-biphenyl-4-yloxymethyl)-5-methyl-furan-2-carbonyl]-amide], in that order: more than 3.16 µM and more than 10 µM.
`COc1ccc(-c2ccc(OCc3cc(C(=O)NS(=O)(=O)c4ccccc4)oc3C)cc2)nc1` [Compound 132, N-{4-[4-(5-Methoxy-pyridin-2-yl)-phenoxymethyl]-5-methyl-furan-2-carbonyl}-benzenesulphonamide]: the Ki on human EP2 receptor and on human EP3 receptor was more than 10 µM in each case.
Regarding `COc1ccc(-c2ccc(OCc3cc(C(=O)NS(=O)(=O)c4c(C)noc4C)oc3C)cc2)nc1` [Compound 133, 3,5-Dimethyl-isoxazole-4-sulphonic acid {4-[4-(5-methoxy-pyridin-2-yl)-phenoxymethyl]-5-methyl-furan-2-carbonyl}-amide], the Ki on human EP2 receptor and at human EP3 receptor was more than 10 µM each time.
Turning to `COc1ccc(-c2ccc(OCc3cc(C(=O)NS(=O)(=O)c4ccccc4C)oc3C)cc2)nc1` [Compound 134, N-{4-[4-(5-Methoxy-pyridin-2-yl)-phenoxymethyl]-5-methyl-furan-2-carbonyl}-2-methyl-benzenesulphonamide], the Ki at human EP2 receptor and at human EP3 receptor was more than 10 µM in each case.
For `COc1ccc(-c2ccc(OCc3cc(C(=O)NS(=O)(=O)c4ccccc4)oc3C)cc2)c(C)c1` [Compound 145, N-[4-(4′-Methoxy-2′-methyl-biphenyl-4-yloxymethyl)-5-methyl-furan-2-carbonyl]-benzenesulphonamide], the Ki at human EP2 receptor and on human EP3 receptor was more than 10 µM throughout.
Turning to `COc1ccc(-c2ccc(OCc3cc(C(=O)NS(=O)(=O)c4c(C)noc4C)oc3C)cc2)c(C)c1` [Compound 146, 3,5-Dimethyl-isoxazole-4-sulphonic acid [4-(4′-methoxy-2′-methyl-biphenyl-4-yloxymethyl)-5-methyl-furan-2-carbonyl]-amide], the Ki at human EP2 receptor and at human EP3 receptor was more than 10 µM each time.
For the compound `Cc1oc(C(=O)NS(=O)(=O)c2ccccc2)cc1CNc1ccc(-c2ccccc2)cc1` [Compound 161, N-[4-(biphenyl-4-ylaminomethyl)-5-methyl-furan-2-carbonyl]-benzenesulphonamide], the Ki at human EP2 receptor and at human EP3 receptor was more than 10 µM in each case.
`Cc1ccccc1S(=O)(=O)NC(=O)c1cc(CNc2ccc(-c3ccccc3)cc2)c(C)o1` [Compound 162, N-[4-(Biphenyl-4-ylaminomethyl)-5-methyl-furan-2-carbonyl]-2-methyl-benzenesulfonamide]: the Ki at human EP2 receptor and on human EP3 receptor was more than 10 µM throughout.
In the case of `Cc1ccccc1S(=O)(=O)NC(=O)c1cc(CNc2ccc(-c3ccc(OC(F)F)cc3)cc2)c(C)o1` [Compound 173, N-{4-[(4′-Difluoromethoxy-biphenyl-4-ylamino)-methyl]-5-methyl-furan-2-carbonyl}-2-methyl-benzenesulphonamide], the figures for the Ki at human EP2 receptor and at human EP3 receptor were more than 3.16 µM and more than 10 µM, respectively.
